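Exposure lasted 48 hours, with cells grown in 96-well plates and compounds tested at five concentrations. At the TGI there is no net growth.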
Key:
Assay in all cases: NCI tumour cell line growth inhibition, 48 h
[1] = system: 786-0 renal
[2] = system: A498 renal
[3] = system: A549 NSCLC
[4] = system: ACHN renal
[5] = system: CAKI-1 renal
[6] = system: CCRF-CEM leukemia
[7] = system: COLO 205 colon
[8] = system: DLD-1 colon
[9] = system: DMS 114 small cell lung
[10] = system: DMS 273 small cell lung
[11] = system: EKVX NSCLC
[12] = system: HCC-2998 colon
[13] = system: HCT-116 colon
[14] = system: HCT-15 colon
[15] = system: HL-60(TB) leukemia
[16] = system: HOP-18 NSCLC
[17] = system: HOP-62 NSCLC
[18] = system: HOP-92 NSCLC
[19] = system: HT29 colon
[20] = system: IGROV1 ovarian
[21] = system: K-562 leukemia
[22] = system: KM12 colon
[23] = system: KM20L2 colon
[24] = system: LOX IMVI melanoma
[25] = system: LXFL 529 NSCLC
[26] = system: M14 melanoma
[27] = system: M19-MEL melanoma
[28] = system: MALME-3M melanoma
[29] = system: MOLT-4 leukemia
[30] = system: NCI-H226 lung
[31] = system: NCI-H23 lung
[32] = system: NCI-H460 lung
[33] = system: OVCAR-3 ovarian
[34] = system: OVCAR-4 ovarian
[35] = system: OVCAR-5 ovarian
[36] = system: OVCAR-8 ovarian
[37] = system: RPMI-8226 leukemia
[38] = system: RXF 393 renal
[39] = system: SF-268 CNS
[40] = system: SF-295 CNS
[41] = system: SF-539 CNS
[42] = system: SK-MEL-2 melanoma
[43] = system: SK-MEL-28 melanoma
[44] = system: SK-MEL-5 melanoma
[45] = system: SK-OV-3 ovarian
[46] = system: SN12C renal
[47] = system: SNB-75 CNS
[48] = system: SNB-78 CNS
[49] = system: SR leukemia
[50] = system: SW-620 colon
[51] = system: TK-10 renal
[52] = system: U251 CNS
[53] = system: UACC-257 melanoma
[54] = system: UACC-62 melanoma
[55] = system: UO-31 renal
[56] = system: NCI-H522 lung
[57] = system: SNB-19 CNS
[58] = system: XF 498 CNS
[59] = system: BT-549 breast
[60] = system: DU-145 prostate
[61] = system: HS 578T breast
[62] = system: MCF7 breast
[63] = system: MDA-MB-231 breast
[64] = system: MDA-MB-435
[65] = system: MDA-N
[66] = system: NCI/ADR-RES ovarian
[67] = system: PC-3 prostate
[68] = system: T-47D breast

Measured: TGI

Cc1cc2c(=O)n(-c3ccc(F)cc3)c(C)nc2c(C(=O)O)c1C
not listed: [56] | [57] | [58] | [59] | [60] | [61] | [62] | [63] | [64] | [65] | [66] | [67] | [68]
> 100 µM: all other assays above

Cc1cc(N(CCC#N)S(C)(=O)=O)ccc1C=O
not listed: [11] | [18] | [27] | [51] | [58] | [59] | [60] | [61] | [62] | [63] | [64] | [65] | [66] | [67] | [68]
> 100 µM: all other assays above

CC(=O)Oc1cc(OC(C)=O)c2c(=O)c3ccccc3[nH]c2c1
88.9 µM: [30]
67.9 µM: [28]
92.8 µM: [47]
81.1 µM: [20]
49.5 µM: [45]
86.9 µM: [27]
83.7 µM: [33]
47.1 µM: [41]
51.9 µM: [58]
76.6 µM: [56]
39.1 µM: [44]
85.1 µM: [53]
41.6 µM: [55]
> 100 µM: [3] | [4] | [8] | [9] | [10] | [13] | [14] | [19] | [22] | [24] | [25] | [29] | [31] | [32] | [34] | [36] | [38] | [39] | [40] | [42] | [43] | [46] | [57] | [48] | [51] | [54]
51.2 µM: [16]

COc1ccc(-c2csc(=Nc3ccccc3)n2CC(O)c2ccc([N+](=O)[O-])cc2)cc1 (configuration not stated)
not listed: [8] | [9] | [10] | [16] | [23] | [25] | [27] | [48] | [58]
> 100 µM: all other assays above
